# Results from patent US20230263822A1, “MODULATION OF FACTOR 11 EXPRESSION” (Ionis Pharmaceuticals, Inc., priority 2008, published 2023).
# Strand notation (5' to 3'): a small letter for the sugar, then the base; units joined by * are phosphorothioate-linked, units joined directly phosphodiester-linked; [ ] holds rarer units or linkages, { } end groups; capitals alone tell only the bases. e = 2'-O-(2-methoxyethyl) (MOE); [5mC] = 5-methylcytosine; d = 2'-deoxy (DNA)
# Columns and labels:
# [1] = Hematology assays in cynomolgus monkeys (Example 46); format: in vivo
# Procedure: (§1) Groups, each consisting of two male and two female monkeys, were injected subcutaneously with 25 mg/kg of ISIS 416850, ISIS 449709, ISIS 445522, ISIS 449710, ISIS 449707, ISIS 449711, ISIS 449708, 416858, and ISIS 445531. Antisense oligonucleotide was administered to the monkeys at 25 mg/kg three times per week for week 1 and 25 mg/kg twice per week for weeks 2 to 8. A control group, consisting of two male and two female monkeys was injected subcutaneously with PBS according to the same dosing regimen. Body weights were taken 14 days and 7 days before the start of treatment and were then measured weekly throughout the treatment period. Blood samples were collected 14 days and 5 days before the start of treatment and subsequently several times during the dosing regimen for PT and aPTT measurements, and measurement of various hematologic factors. On day 55, the monkeys were euthanized by exsanguination while under deep anesthesia, and organs harvested for further analysis.
# blood coagulation = experiment: PT and aPTT assay in cynomolgus monkeys (Example 46); format: in vivo; details: for PT ratio (INR) / aPTT ratio relative to PBS group: platelet poor plasma, relative to PBS group
# Procedure: as §1
# PT and aPTT were measured using platelet poor plasma (PPP) from […] treated with ISIS oligonucleotides. PT and aPTT values are provided in Tables 148 and 149 and are reported as International Normalized Ratio (INR) values. INR values for PT and aPTT were determined by dividing the PT or aPTT value for each experimental group by the PT or aPTT for the PBS treated group. This ratio was then raised to the power of the International Sensitivity Index (ISI) of the tissue factor used. […] Therefore, antisense reduction of Factor 11 with these ISIS oligonucleotides is useful for inhibiting the formation of a thrombus or clot in response to an abnormal vessel wall, but not in response to tissue injury.
substance,measurement,setting,value
"ISIS 416858: MOE gapmer, nucleobases 1275 to 1318 of SEQ ID NO: 1 (Table 8) (antisense ACGGCATTGGTGCACAGTTT; MOE gapmer, wing and gap sizes not given here)",HCT,[1]; Day 17,43%
same,MCH,[1]; Day 17,23.1 pg
same,MCHC,[1]; Day 17,29.9 g/dL
same,MCV,[1]; Day 17,78 fL
same,RBC count,[1]; Day 17,5.6e+06 µL⁻¹
same,WBC count,[1]; Day 17,10000 µL⁻¹
same,hemoglobin content,[1]; Day 17,13.0 g/dL
same,monocytes,[1]; Day 17,4.0%
same,neutrophils,[1]; Day 17,54%
same,platelet count,[1]; Day 17,358 ×100/μL
same,HCT,[1]; Day 31,43%
same,MCH,[1]; Day 31,23.0 pg
same,MCHC,[1]; Day 31,31.0 g/dL
same,MCV,[1]; Day 31,76 fL
same,RBC count,[1]; Day 31,5.6e+06 µL⁻¹
same,WBC count,[1]; Day 31,9000 µL⁻¹
same,hemoglobin content,[1]; Day 31,12.8 g/dL
same,monocytes,[1]; Day 31,4.7%
same,neutrophils,[1]; Day 31,54%
same,platelet count,[1]; Day 31,289 ×100/μL
same,HCT,[1]; Day 45,41%
same,MCH,[1]; Day 45,22.2 pg
same,MCHC,[1]; Day 45,30.3 g/dL
same,MCV,[1]; Day 45,75 fL
same,RBC count,[1]; Day 45,5.5e+06 µL⁻¹
same,WBC count,[1]; Day 45,8000 µL⁻¹
same,hemoglobin content,[1]; Day 45,12.3 g/dL
same,monocytes,[1]; Day 45,4.6%
same,neutrophils,[1]; Day 45,61%
same,platelet count,[1]; Day 45,287 ×100/μL
same,HCT,[1]; Day 55,39%
same,MCH,[1]; Day 55,22.8 pg
same,MCHC,[1]; Day 55,30.4 g/dL
same,MCV,[1]; Day 55,75 fL
same,RBC count,[1]; Day 55,5.3e+06 µL⁻¹
same,WBC count,[1]; Day 55,9000 µL⁻¹
same,hemoglobin content,[1]; Day 55,12.0 g/dL
same,monocytes,[1]; Day 55,4.6%
same,neutrophils,[1]; Day 55,73%
same,platelet count,[1]; Day 55,257 ×100/μL
same,HCT,[1]; Day-5,44%
same,MCH,[1]; Day-5,23.5 pg
same,MCHC,[1]; Day-5,29.8 g/dL
same,MCV,[1]; Day-5,79 fL
same,RBC count,[1]; Day-5,5.5e+06 µL⁻¹
same,WBC count,[1]; Day-5,11000 µL⁻¹
same,hemoglobin content,[1]; Day-5,13.0 g/dL
same,monocytes,[1]; Day-5,2.7%
same,neutrophils,[1]; Day-5,84%
same,platelet count,[1]; Day-5,433 ×100/μL
same,HCT,[1]; Day-14,41%
same,MCH,[1]; Day-14,23.2 pg
same,MCHC,[1]; Day-14,31.1 g/dL
same,MCV,[1]; Day-14,75 fL
same,RBC count,[1]; Day-14,5.5e+06 µL⁻¹
same,WBC count,[1]; Day-14,10000 µL⁻¹
same,hemoglobin content,[1]; Day-14,12.8 g/dL
same,monocytes,[1]; Day-14,2.0%
same,neutrophils,[1]; Day-14,65%
same,platelet count,[1]; Day-14,369 ×100/μL
same,PT ratio (INR),blood coagulation; Day 10,0.96
same,aPTT ratio relative to PBS group,blood coagulation; Day 10,1.07
same,PT ratio (INR),blood coagulation; Day 17,0.98
same,aPTT ratio relative to PBS group,blood coagulation; Day 17,1.13
same,PT ratio (INR),blood coagulation; Day 24,0.95
same,aPTT ratio relative to PBS group,blood coagulation; Day 24,1.21
same,PT ratio (INR),blood coagulation; Day 31,1.00
same,aPTT ratio relative to PBS group,blood coagulation; Day 31,1.32
same,PT ratio (INR),blood coagulation; Day 38,0.97
same,aPTT ratio relative to PBS group,blood coagulation; Day 38,1.41
same,PT ratio (INR),blood coagulation; Day 45,1.00
same,aPTT ratio relative to PBS group,blood coagulation; Day 45,1.49
same,PT ratio (INR),blood coagulation; Day 52,0.99
same,aPTT ratio relative to PBS group,blood coagulation; Day 52,1.53
same,PT ratio (INR),blood coagulation; Day 55,1.01
same,aPTT ratio relative to PBS group,blood coagulation; Day 55,1.61
same,PT ratio (INR),blood coagulation; Day −5,0.96
same,aPTT ratio relative to PBS group,blood coagulation; Day −5,0.96
same,PT ratio (INR),blood coagulation; Day −14,1.01
same,aPTT ratio relative to PBS group,blood coagulation; Day −14,1.03
same,aPTT,"blood coagulation; cynomolgus monkeys, 25 mg/kg",significantly prolonged
"ISIS 449710: 3-8-3, 4-8-4, 2-10-2, 3-10-3 or 4-10-4 MOE microwalk gapmer (Table 46) (antisense e[5mC]*eA*e[5mC]*dA*dG*dT*dT*dT*d[5mC]*dT*dG*dG*d[5mC]*eA*eG*eG)",HCT,[1]; Day 17,43%
same,MCH,[1]; Day 17,23.1 pg
same,MCHC,[1]; Day 17,30.7 g/dL
same,MCV,[1]; Day 17,75 fL
same,RBC count,[1]; Day 17,5.8e+06 µL⁻¹
same,WBC count,[1]; Day 17,12000 µL⁻¹
same,hemoglobin content,[1]; Day 17,13.4 g/dL
same,monocytes,[1]; Day 17,2.5%
same,neutrophils,[1]; Day 17,80%
same,platelet count,[1]; Day 17,382 ×100/μL
same,HCT,[1]; Day 31,44%
same,MCH,[1]; Day 31,22.6 pg
same,MCHC,[1]; Day 31,30.1 g/dL
same,MCV,[1]; Day 31,75 fL
same,RBC count,[1]; Day 31,5.8e+06 µL⁻¹
same,WBC count,[1]; Day 31,12000 µL⁻¹
same,hemoglobin content,[1]; Day 31,13.1 g/dL
same,monocytes,[1]; Day 31,2.4%
same,neutrophils,[1]; Day 31,94%
same,platelet count,[1]; Day 31,422 ×100/μL
same,HCT,[1]; Day 45,43%
same,MCH,[1]; Day 45,21.8 pg
same,MCHC,[1]; Day 45,30.4 g/dL
same,MCV,[1]; Day 45,75 fL
same,RBC count,[1]; Day 45,5.7e+06 µL⁻¹
same,WBC count,[1]; Day 45,11000 µL⁻¹
same,hemoglobin content,[1]; Day 45,13.0 g/dL
same,monocytes,[1]; Day 45,3.4%
same,neutrophils,[1]; Day 45,97%
same,platelet count,[1]; Day 45,313 ×100/μL
same,HCT,[1]; Day 55,41%
same,MCH,[1]; Day 55,22.7 pg
same,MCHC,[1]; Day 55,31.1 g/dL
same,MCV,[1]; Day 55,73 fL
same,RBC count,[1]; Day 55,5.6e+06 µL⁻¹
same,WBC count,[1]; Day 55,15000 µL⁻¹
same,hemoglobin content,[1]; Day 55,12.7 g/dL
same,monocytes,[1]; Day 55,1.6%
same,neutrophils,[1]; Day 55,132%
same,platelet count,[1]; Day 55,360 ×100/μL
same,HCT,[1]; Day-5,44%
same,MCH,[1]; Day-5,22.8 pg
same,MCHC,[1]; Day-5,29.7 g/dL
same,MCV,[1]; Day-5,77 fL
same,RBC count,[1]; Day-5,5.8e+06 µL⁻¹
same,WBC count,[1]; Day-5,11000 µL⁻¹
same,hemoglobin content,[1]; Day-5,13.2 g/dL
same,monocytes,[1]; Day-5,2.0%
same,neutrophils,[1]; Day-5,86%
same,platelet count,[1]; Day-5,463 ×100/μL
same,HCT,[1]; Day-14,41%
same,MCH,[1]; Day-14,23.0 pg
same,MCHC,[1]; Day-14,31.2 g/dL
same,MCV,[1]; Day-14,75 fL
same,RBC count,[1]; Day-14,5.6e+06 µL⁻¹
same,WBC count,[1]; Day-14,11000 µL⁻¹
same,hemoglobin content,[1]; Day-14,13.0 g/dL
same,monocytes,[1]; Day-14,1.3%
same,neutrophils,[1]; Day-14,93%
same,platelet count,[1]; Day-14,411 ×100/μL
same,PT ratio (INR),blood coagulation; Day 10,0.98
same,aPTT ratio relative to PBS group,blood coagulation; Day 10,1.00
same,PT ratio (INR),blood coagulation; Day 17,1.00
same,aPTT ratio relative to PBS group,blood coagulation; Day 17,0.97
same,PT ratio (INR),blood coagulation; Day 24,0.97
same,aPTT ratio relative to PBS group,blood coagulation; Day 24,1.00
same,PT ratio (INR),blood coagulation; Day 31,0.98
same,aPTT ratio relative to PBS group,blood coagulation; Day 31,1.04
same,PT ratio (INR),blood coagulation; Day 38,0.99
same,aPTT ratio relative to PBS group,blood coagulation; Day 38,1.02
same,PT ratio (INR),blood coagulation; Day 45,0.97
same,aPTT ratio relative to PBS group,blood coagulation; Day 45,1.06
same,PT ratio (INR),blood coagulation; Day 52,0.98
same,aPTT ratio relative to PBS group,blood coagulation; Day 52,1.03
same,PT ratio (INR),blood coagulation; Day 55,1.06
same,aPTT ratio relative to PBS group,blood coagulation; Day 55,1.07
same,PT ratio (INR),blood coagulation; Day −5,0.96
same,aPTT ratio relative to PBS group,blood coagulation; Day −5,0.98
same,PT ratio (INR),blood coagulation; Day −14,1.03
same,aPTT ratio relative to PBS group,blood coagulation; Day −14,1.07
